Earlier results, collected in patent publication US9265757B2, “Methods of administering antihistamines” (APTAPHARMA INC., priority 2011, dated 2016).

settings: second generation antihistamines; from time of administration to symptomatic relief

Question: Which “lag time before onset of action” value does the source give for `CC(C)(C)c1ccc(C(O)CCCN2CCC(C(O)(c3ccccc3)c3ccccc3)CC2)cc1` (stereo not shown) [terfenadine] here?
Answer: several hours

Question: With `CCOC(=O)N1CCC(=C2c3ccc(Cl)cc3CCc3cccnc32)CC1` [loratadine] as the molecule, how does the “lag time before onset of action” value read?
Answer: several hours

Question: Which “lag time before onset of action” value does the source give for `COc1ccc(CCN2CCC(Nc3nc4ccccc4n3Cc3ccc(F)cc3)CC2)cc1` [astemizole] here?
Answer: several hours

Question: For `O=C(O)COCCN1CCN(C(c2ccccc2)c2ccc(Cl)cc2)CC1` (stereo not shown) [cetirizine], which “lag time before onset of action” value is on record?
Answer: several hours
